Test results published in patent publication US12258328B2, “6-membered heteroaryl-containing aminopyridine compounds as EGFR inhibitors” (YUHAN CORPORATION, priority 2021, dated 2025).
Like-named read-outs stand apart in the source and are kept apart here.

Legend:
EGFR del19/T790M/C797S = EGFR del19/T790M/C797S (Homo sapiens, UniProt P00533, C797S/DEL746-750/T790M); assay: Biochemical EGFR kinase assay (Lance Ultra TR-FRET), triple mutant del19/T790M/C797S
Summary of the method: (§1)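 In this biochemical assay, phosphorylation after a one-hour room-temperature reaction was detected with europium-labelled anti-phosphopeptide antibody at 2 nM final concentration.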

EGFR L858R/T790M/C797S = EGFR L858R/T790M/C797S (Homo sapiens, UniProt P00533, C797S/L858R/T790M); assay: Biochemical EGFR kinase assay (Lance Ultra TR-FRET), triple mutant L858R/T790M/C797S
Summary of the method: as §1

EGFR del19/C797S = EGFR del19/C797S (Homo sapiens, UniProt P00533, C797S/DEL746-750); assay: Biochemical EGFR kinase assay (Lance Ultra TR-FRET), double mutant del19/C797S
Summary of the method: as §1

EGFR L858R/C797S = EGFR L858R/C797S (Homo sapiens, UniProt P00533, C797S/L858R); assay: Biochemical EGFR kinase assay (Lance Ultra TR-FRET), double mutant L858R/C797S
Summary of the method: as §1

EGFR wildtype = EGFR wildtype (Homo sapiens, UniProt P00533); assay: Biochemical EGFR kinase assay (Lance Ultra TR-FRET), wildtype
Summary of the method: as §1

[1] = ATP at Km, read-out: IC50 del19/T790M/C797S, Km ATP
[2] = IC50 del19/T790M/C797S, 100 μM ATP
[3] = ATP at Km, read-out: IC50 L858R/T790M/C797S, Km ATP
[4] = IC50 L858R/T790M/C797S, 100 μM ATP
[5] = ATP at Km, read-out: IC50 del19/C797S, Km ATP
[6] = ATP at Km, read-out: IC50 L858R/C797S, Km ATP
[7] = ATP at Km, read-out: IC50 WT, Km ATP

Chain of EGFR wildtype (P00533 25-1210): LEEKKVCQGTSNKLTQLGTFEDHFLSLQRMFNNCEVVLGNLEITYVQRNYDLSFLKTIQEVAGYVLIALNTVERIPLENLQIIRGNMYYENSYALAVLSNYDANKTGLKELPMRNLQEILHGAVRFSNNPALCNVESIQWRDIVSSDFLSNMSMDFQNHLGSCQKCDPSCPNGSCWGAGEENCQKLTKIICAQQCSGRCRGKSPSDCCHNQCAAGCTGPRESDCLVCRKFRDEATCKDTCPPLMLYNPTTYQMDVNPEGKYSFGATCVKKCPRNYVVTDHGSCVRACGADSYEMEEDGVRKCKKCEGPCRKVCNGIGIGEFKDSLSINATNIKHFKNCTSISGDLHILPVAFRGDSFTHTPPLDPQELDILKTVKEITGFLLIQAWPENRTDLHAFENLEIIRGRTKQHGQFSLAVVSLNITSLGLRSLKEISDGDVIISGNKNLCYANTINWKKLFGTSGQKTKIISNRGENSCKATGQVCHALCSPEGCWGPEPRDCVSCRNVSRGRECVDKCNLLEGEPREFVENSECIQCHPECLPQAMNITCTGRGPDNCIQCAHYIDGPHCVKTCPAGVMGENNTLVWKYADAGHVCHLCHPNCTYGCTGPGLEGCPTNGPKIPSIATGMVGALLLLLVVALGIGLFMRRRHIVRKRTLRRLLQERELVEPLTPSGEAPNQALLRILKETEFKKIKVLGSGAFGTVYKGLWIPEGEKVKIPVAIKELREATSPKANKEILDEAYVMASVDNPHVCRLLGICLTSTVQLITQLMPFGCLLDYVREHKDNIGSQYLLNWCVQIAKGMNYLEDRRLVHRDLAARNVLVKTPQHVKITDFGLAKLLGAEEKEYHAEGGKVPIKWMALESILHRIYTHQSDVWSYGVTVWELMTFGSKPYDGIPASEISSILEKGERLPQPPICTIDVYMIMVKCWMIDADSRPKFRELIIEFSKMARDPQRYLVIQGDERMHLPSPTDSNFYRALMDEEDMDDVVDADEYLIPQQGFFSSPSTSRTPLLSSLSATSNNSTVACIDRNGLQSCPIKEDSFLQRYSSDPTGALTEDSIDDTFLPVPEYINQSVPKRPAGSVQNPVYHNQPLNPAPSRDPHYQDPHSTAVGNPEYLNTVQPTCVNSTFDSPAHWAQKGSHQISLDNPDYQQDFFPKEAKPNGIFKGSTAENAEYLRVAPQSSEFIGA
Chain of EGFR del19/T790M/C797S (P00533 with tags, fused parts or gaps DEL746-750/T790M/C797S): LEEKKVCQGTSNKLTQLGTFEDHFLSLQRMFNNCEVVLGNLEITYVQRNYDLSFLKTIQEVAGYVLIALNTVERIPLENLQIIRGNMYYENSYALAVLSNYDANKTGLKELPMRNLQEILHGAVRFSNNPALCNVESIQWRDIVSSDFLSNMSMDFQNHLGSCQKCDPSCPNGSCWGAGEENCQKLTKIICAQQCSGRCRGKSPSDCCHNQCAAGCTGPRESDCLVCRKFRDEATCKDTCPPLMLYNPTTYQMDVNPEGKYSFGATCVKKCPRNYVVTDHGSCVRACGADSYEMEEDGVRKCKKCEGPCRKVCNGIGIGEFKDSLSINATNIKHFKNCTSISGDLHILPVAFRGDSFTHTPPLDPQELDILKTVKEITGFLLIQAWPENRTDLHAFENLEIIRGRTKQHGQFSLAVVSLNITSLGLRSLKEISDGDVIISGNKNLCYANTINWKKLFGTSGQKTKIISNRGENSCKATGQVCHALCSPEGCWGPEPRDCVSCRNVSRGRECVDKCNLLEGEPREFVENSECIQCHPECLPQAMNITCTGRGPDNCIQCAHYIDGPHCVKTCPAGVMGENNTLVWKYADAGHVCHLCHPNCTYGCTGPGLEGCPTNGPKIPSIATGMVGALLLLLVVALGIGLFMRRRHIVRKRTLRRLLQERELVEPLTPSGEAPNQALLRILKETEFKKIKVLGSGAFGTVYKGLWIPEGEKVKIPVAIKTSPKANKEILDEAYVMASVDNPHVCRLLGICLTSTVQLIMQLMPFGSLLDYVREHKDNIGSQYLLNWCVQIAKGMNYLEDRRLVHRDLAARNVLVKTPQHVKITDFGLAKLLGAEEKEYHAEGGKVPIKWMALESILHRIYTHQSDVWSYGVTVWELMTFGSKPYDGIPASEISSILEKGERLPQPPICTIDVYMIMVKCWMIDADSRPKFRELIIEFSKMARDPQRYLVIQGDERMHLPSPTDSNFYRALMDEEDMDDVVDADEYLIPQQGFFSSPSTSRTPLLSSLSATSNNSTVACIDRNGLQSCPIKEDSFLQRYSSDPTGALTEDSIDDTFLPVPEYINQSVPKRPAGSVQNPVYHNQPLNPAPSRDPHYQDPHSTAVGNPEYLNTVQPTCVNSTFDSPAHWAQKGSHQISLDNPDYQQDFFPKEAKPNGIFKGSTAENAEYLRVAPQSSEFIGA
Chain of EGFR L858R/C797S (P00533 25-1210 C797S/L858R): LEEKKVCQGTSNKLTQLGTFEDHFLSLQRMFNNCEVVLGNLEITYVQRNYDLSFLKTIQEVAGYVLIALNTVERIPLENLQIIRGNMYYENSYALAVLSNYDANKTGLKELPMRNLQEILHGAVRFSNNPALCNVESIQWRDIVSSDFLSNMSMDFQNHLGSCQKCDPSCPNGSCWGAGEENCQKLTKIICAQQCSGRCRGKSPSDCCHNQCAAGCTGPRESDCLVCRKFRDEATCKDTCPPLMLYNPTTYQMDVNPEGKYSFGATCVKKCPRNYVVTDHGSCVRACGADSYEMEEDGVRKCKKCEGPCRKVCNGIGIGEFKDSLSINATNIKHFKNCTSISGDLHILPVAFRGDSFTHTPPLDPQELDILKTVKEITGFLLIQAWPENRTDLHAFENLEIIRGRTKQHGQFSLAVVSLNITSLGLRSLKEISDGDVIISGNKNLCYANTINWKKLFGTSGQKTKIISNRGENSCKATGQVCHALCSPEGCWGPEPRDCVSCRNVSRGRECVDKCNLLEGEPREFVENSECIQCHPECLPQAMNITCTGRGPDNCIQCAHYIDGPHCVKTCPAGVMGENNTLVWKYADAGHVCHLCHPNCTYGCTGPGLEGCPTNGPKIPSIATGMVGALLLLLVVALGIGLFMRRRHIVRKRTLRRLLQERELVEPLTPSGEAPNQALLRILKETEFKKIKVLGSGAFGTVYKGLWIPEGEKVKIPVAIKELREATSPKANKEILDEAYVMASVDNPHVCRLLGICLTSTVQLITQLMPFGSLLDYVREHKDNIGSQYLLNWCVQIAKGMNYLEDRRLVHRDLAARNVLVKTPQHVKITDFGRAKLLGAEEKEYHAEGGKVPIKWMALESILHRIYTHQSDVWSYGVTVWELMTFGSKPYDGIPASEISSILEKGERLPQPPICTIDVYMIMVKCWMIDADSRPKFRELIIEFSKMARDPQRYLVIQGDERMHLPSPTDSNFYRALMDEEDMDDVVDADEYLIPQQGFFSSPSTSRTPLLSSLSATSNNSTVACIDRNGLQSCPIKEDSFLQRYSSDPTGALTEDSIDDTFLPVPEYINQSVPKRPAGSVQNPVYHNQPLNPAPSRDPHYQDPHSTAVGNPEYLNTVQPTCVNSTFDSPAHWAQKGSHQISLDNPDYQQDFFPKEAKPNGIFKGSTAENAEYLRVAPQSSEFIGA
Chain of EGFR del19/C797S (P00533 with tags, fused parts or gaps DEL746-750/C797S): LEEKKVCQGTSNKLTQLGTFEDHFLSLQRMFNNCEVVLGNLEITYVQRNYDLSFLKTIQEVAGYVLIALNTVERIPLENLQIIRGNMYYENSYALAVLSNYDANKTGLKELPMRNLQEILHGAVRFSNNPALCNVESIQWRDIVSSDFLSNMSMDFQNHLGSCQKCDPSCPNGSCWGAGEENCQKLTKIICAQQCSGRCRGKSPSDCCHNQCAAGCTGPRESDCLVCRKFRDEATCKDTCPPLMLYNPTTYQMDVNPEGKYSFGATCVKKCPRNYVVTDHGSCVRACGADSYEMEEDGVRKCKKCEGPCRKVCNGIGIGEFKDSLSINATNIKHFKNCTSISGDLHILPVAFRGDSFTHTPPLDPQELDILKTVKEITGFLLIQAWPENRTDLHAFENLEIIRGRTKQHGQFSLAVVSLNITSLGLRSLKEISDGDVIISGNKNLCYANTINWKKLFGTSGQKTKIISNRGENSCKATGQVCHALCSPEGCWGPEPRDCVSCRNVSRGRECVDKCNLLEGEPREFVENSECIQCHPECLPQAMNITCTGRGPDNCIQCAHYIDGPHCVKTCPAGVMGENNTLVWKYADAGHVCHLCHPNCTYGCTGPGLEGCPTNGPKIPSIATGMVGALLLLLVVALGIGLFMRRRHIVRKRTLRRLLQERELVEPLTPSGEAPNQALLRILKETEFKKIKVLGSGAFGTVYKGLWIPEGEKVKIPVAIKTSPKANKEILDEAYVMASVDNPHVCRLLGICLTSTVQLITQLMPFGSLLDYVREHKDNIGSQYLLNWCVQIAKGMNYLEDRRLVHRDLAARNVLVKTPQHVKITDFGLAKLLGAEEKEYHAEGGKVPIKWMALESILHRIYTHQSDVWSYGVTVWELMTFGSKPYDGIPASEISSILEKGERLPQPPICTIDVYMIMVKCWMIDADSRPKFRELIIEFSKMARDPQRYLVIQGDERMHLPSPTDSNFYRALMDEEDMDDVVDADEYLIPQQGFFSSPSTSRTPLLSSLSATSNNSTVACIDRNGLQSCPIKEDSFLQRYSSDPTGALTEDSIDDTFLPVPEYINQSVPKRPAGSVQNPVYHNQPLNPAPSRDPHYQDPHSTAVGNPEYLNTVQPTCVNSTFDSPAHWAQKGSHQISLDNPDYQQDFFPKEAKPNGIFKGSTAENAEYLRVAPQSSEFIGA

Row | SMILES | IC50 (EGFR del19/T790M/C797S; [1]) | IC50 (EGFR del19/T790M/C797S; [2]) | IC50 (EGFR L858R/T790M/C797S; [3]) | IC50 (EGFR L858R/T790M/C797S; [4]) | IC50 (EGFR del19/C797S; [5]) | IC50 (EGFR L858R/C797S; [6]) | IC50 (EGFR L858R/C797S; IC50 L858R/C797S, 100 μM ATP) | IC50 (EGFR wildtype; [7]) | IC50 (EGFR wildtype; IC50 WT, 100 μM ATP) | IC50 (EGFR del19/C797S; IC50 del19/C797S, 100 μM ATP) | IC50 (EGFR del19/T790M/C797S; read-out: IC50 del19/T790M/C797S, 100 μM ATP) | IC50 (EGFR L858R/T790M/C797S; read-out: IC50 L858R/T790M/C797S, 100 μM ATP) | IC50 (EGFR del19/C797S; read-out: IC50 del19/C797S, 100 μM ATP) | IC50 (EGFR L858R/C797S; read-out: IC50 L858R/C797S, 100 μM ATP) | IC50 (EGFR wildtype; read-out: IC50 WT, 100 μM ATP)
1 | O=S(=O)(C1CC1)n1cc(-c2nccc(Nc3cc(N[C@H]4CCC[C@H](CO)C4)c(-c4ccc(CC(F)(F)F)cn4)cn3)n2)cn1 [Example 222, ((1S,3S)-3-((6′-((2-(1-(Cyclopropylsulfonyl)-1H-pyrazol-4-yl)pyrimidin-4-yl)amino)-5-(2,2,2-trifluoroethyl)-[2,3′-bipyridin]-4′-yl)amino)cyclohexyl)methanol] | 3.9 nM | 3.4 nM | 1.7 nM | 2 nM | 8.9 nM | 11.7 nM | 296 nM | 37.4 nM | > 10000 nM | 16.8 nM | – | – | – | – | –
2 | O=S(=O)(C1CC1)n1cc(-c2nccc(Nc3cc(N[C@H]4CC[C@@H](CCO)CC4)c(-c4ccc(CC(F)(F)F)cn4)cn3)n2)cn1 [Example 223, 2-((1s,4s)-4-((6′-((2-(1-(Cyclopropylsulfonyl)-1H-pyrazol-4-yl)pyrimidin-4-yl)amino)-5-(2,2,2-trifluoroethyl)-[2,3′-bipyridin]-4′-yl)amino)cyclohexyl)ethan-1-ol] | 6.4 nM | 3.5 nM | 2.4 nM | 5 nM | 10.2 nM | 4.4 nM | 116 nM | 11.5 nM | > 10000 nM | 14.6 nM | – | – | – | – | –
3 | CC(C)(O)[C@H]1CC[C@@H](Nc2cc(Nc3ccnc(-c4cnn(S(=O)(=O)C5CC5)c4)n3)ncc2-c2ccc(N3CC(F)(F)C3)cn2)CC1 [Example 225, 2-((1s,4s)-4-((6′-((2-(1-(Cyclopropylsulfonyl)-1H-pyrazol-4-yl)pyrimidin-4-yl)amino)-5-(3,3-difluoroazetidin-1-yl)-[2,3′-bipyridin]-4′-yl)amino)cyclohexyl)propan-2-ol] | 6.9 nM | – | 2.5 nM | – | 16.1 nM | 10.2 nM | – | 33.8 nM | – | – | 6 nM | 4.4 nM | 19.8 nM | 799 nM | > 10000 nM
4 | CC(C)(O)C1CCC(Nc2cc(Nc3ccnc(-c4cnn(S(=O)(=O)C5CC5)c4)n3)ncc2-c2ccc(C(O)C(F)(F)F)cn2)CC1 (centres unmarked) [Example 229, 2-((1s,4s)-4-((6′-((2-(1-(Cyclopropylsulfonyl)-1H-pyrazol-4-yl)pyrimidin-4-yl)amino)-5-(2,2,2-trifluoro-1-hydroxyethyl)-[2,3′-bipyridin]-4′-yl)amino)cyclohexyl)propan-2-ol] | 3.3 nM | 4.4 nM | 0.9 nM | 1.9 nM | 4.8 nM | 11.5 nM | 96.1 nM | 17.4 nM | 9480 nM | 20.8 nM | – | – | – | – | –
5 | CC(O)(c1ccc(-c2cnc(Nc3ccnc(-c4cnn(S(=O)(=O)C5CC5)c4)n3)cc2N[C@H]2CCC[C@H](CO)C2)nc1)C(F)(F)F (stereo partly drawn) [Example 232, 2-(6′-((2-(1-(Cyclopropylsulfonyl)-1H-pyrazol-4-yl)pyrimidin-4-yl)amino)-4′-(((1S,3S)-3-(hydroxymethyl)cyclohexyl)amino)-[2,3′-bipyridin]-5-yl)-1,1,1-trifluoropropan-2-ol] | 3.9 nM | 2.1 nM | 0.8 nM | 0.8 nM | 3.3 nM | 6.7 nM | 60.2 nM | 19 nM | 8760 nM | 9.5 nM | – | – | – | – | –
6 | CC(C)(O)C1CCC(Nc2cc(Nc3ccnc(-c4cnn(S(=O)(=O)C5CC5)c4)n3)ncc2-c2ccc(C(C)(O)C(F)(F)F)cn2)CC1 (centres unmarked) [Example 233, 2-(6′-((2-(1-(Cyclopropylsulfonyl)-1H-pyrazol-4-yl)pyrimidin-4-yl)amino)-4′-(((1s,4s)-4-(2-hydroxypropan-2-yl)cyclohexyl)amino)-[2,3′-bipyridin]-5-yl)-1,1,1-trifluoropropan-2-ol] | 4.7 nM | 6.3 nM | 0.9 nM | 2.7 nM | 7.1 nM | 4.7 nM | 36 nM | 18.3 nM | 6750 nM | 19.2 nM | – | – | – | – | –

These reach a lower IC50 (EGFR del19/T790M/C797S; [1]). Values come first.

Row | IC50 (EGFR del19/T790M/C797S; [1]) | IC50 (EGFR del19/T790M/C797S; [2]) | IC50 (EGFR L858R/T790M/C797S; [3]) | IC50 (EGFR L858R/T790M/C797S; [4]) | IC50 (EGFR del19/C797S; [5]) | IC50 (EGFR L858R/C797S; [6]) | IC50 (EGFR L858R/C797S; IC50 L858R/C797S, 100 μM ATP) | IC50 (EGFR wildtype; [7]) | IC50 (EGFR wildtype; IC50 WT, 100 μM ATP) | IC50 (EGFR del19/C797S; IC50 del19/C797S, 100 μM ATP) | IC50 (EGFR del19/T790M/C797S; read-out: IC50 del19/T790M/C797S, 100 μM ATP) | IC50 (EGFR L858R/T790M/C797S; read-out: IC50 L858R/T790M/C797S, 100 μM ATP) | IC50 (EGFR del19/C797S; read-out: IC50 del19/C797S, 100 μM ATP) | IC50 (EGFR L858R/C797S; read-out: IC50 L858R/C797S, 100 μM ATP) | IC50 (EGFR wildtype; read-out: IC50 WT, 100 μM ATP) | SMILES
7 | 2 nM | 1.6 nM | 0.4 nM | 1.4 nM | 2.1 nM | – | 171 nM | 5.2 nM | > 10000 nM | 3.5 nM | – | – | – | – | – | C[C@]1(O)CC[C@@H](Nc2cc(Nc3ccnc(-c4cnn(S(=O)(=O)C5CC5)c4)n3)ncc2-c2ccc(N3CC(F)(F)C3)cn2)CC1 [Example 224, (1s,4s)-4-((6′-((2-(1-(Cyclopropylsulfonyl)-1H-pyrazol-4-yl)pyrimidin-4-yl)amino)-5-(3,3-difluoroazetidin-1-yl)-[2,3′-bipyridin]-4′-yl)amino)-1-methylcyclohexan-1-ol]
8 | 1.9 nM | 2.9 nM | 0.5 nM | 1 nM | 5.6 nM | 12.2 nM | 64.9 nM | 19.3 nM | > 10000 nM | 14.3 nM | – | – | – | – | – | O=S(=O)(C1CC1)n1cc(-c2nccc(Nc3cc(N[C@H]4CCC[C@H](CO)C4)c(-c4ccc(C(O)C(F)(F)F)cn4)cn3)n2)cn1 (stereo partly drawn) [Example 228, 1-(6′-((2-(1-(Cyclopropylsulfonyl)-1H-pyrazol-4-yl)pyrimidin-4-yl)amino)-4′-(((1S,3S)-3-(hydroxymethyl)cyclohexyl)amino)-[2,3′-bipyridin]-5-yl)-2,2,2-trifluoroethan-1-ol]
9 | 1.4 nM | 2 nM | 0.4 nM | 0.9 nM | 1.7 nM | 1.2 nM | 4.6 nM | 4.1 nM | 502 nM | 6.4 nM | – | – | – | – | – | CC(O)(c1ccc(-c2cnc(Nc3ccnc(-c4cnn(S(=O)(=O)C5CC5)c4)n3)cc2NC2CCC(CO)CC2)nc1)C(F)(F)F (centres unmarked) [Example 231, 2-(6′-((2-(1-(Cyclopropylsulfonyl)-1H-pyrazol-4-yl)pyrimidin-4-yl)amino)-4′-(((1s,4s)-4-(hydroxymethyl)cyclohexyl)amino)-[2,3′-bipyridin]-5-yl)-1,1,1-trifluoropropan-2-ol]
10 | 1.1 nM | 1.4 nM | 0.3 nM | 0.5 nM | 1.1 nM | 1 nM | 5.7 nM | 2.1 nM | 767 nM | – | – | – | – | – | – | CN(C)C[C@H]1CC[C@@H](Nc2cc(Nc3ccnc(-c4cnn(S(=O)(=O)C5CC5)c4)n3)ncc2-c2ccc(CC(F)(F)F)cn2)CC1 [Example 221, N^6′-(2-(1-(Cyclopropylsulfonyl)-1H-pyrazol-4-yl)pyrimidin-4-yl)-N^4′-((1s,4s)-4-((dimethylamino)methyl)cyclohexyl)-5-(2,2,2-trifluoroethyl)-[2,3′-bipyridine]-4′,6′-diamine]
11 | 1.1 nM | – | 0.4 nM | 0.6 nM | 1.7 nM | 2.4 nM | 7.8 nM | 5 nM | 1660 nM | 6 nM | – | – | – | – | – | CC1(O)CCC(Nc2cc(Nc3ccnc(-c4cnn(S(=O)(=O)C5CC5)c4)n3)ncc2-c2ccc(C(C)(O)C(F)(F)F)cn2)CC1 (centres unmarked) [Example 230, (1s,4s)-4-((6′-((2-(1-(Cyclopropylsulfonyl)-1H-pyrazol-4-yl)pyrimidin-4-yl)amino)-5-(1,1,1-trifluoro-2-hydroxypropan-2-yl)-[2,3′-bipyridin]-4′-yl)amino)-1-methylcyclohexan-1-ol]
12 | 0.9 nM | – | 0.4 nM | 0.8 nM | 1.9 nM | 2.5 nM | 10 nM | 5.2 nM | 835 nM | 7 nM | – | – | – | – | – | O=S(=O)(C1CC1)n1cc(-c2nccc(Nc3cc(NC4CCC(CO)CC4)c(-c4ccc(C(O)C(F)(F)F)cn4)cn3)n2)cn1 (centres unmarked) [Example 227, 1-(6′-((2-(1-(Cyclopropylsulfonyl)-1H-pyrazol-4-yl)pyrimidin-4-yl)amino)-4′-(((1s,4s)-4-(hydroxymethyl)cyclohexyl)amino)-[2,3′-bipyridin]-5-yl)-2,2,2-trifluoroethan-1-ol]
13 | 0.8 nM | 0.8 nM | 0.3 nM | 0.5 nM | – | 2 nM | 8.4 nM | 4.9 nM | 5120 nM | 4.7 nM | – | – | – | – | – | CC1(O)CCC(Nc2cc(Nc3ccnc(-c4cnn(S(=O)(=O)C5CC5)c4)n3)ncc2-c2ccc(C(O)C(F)(F)F)cn2)CC1 (centres unmarked) [Example 226, (1s,4s)-4-((6′-((2-(1-(Cyclopropylsulfonyl)-1H-pyrazol-4-yl)pyrimidin-4-yl)amino)-5-(2,2,2-trifluoro-1-hydroxyethyl)-[2,3′-bipyridin]-4′-yl)amino)-1-methylcyclohexan-1-ol]
